Experimental data published in PubChem BioAssay AID179 (DTP/NCI, 2004).
Where “and” joins values, the source holds several entries; their conditions need not be identical. Equal entries are not always repeated. Calls of active or inactive are those of the source.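 The calls were made as follows: active = compounds giving half or more protection of infected cells from virus-caused growth loss, again on retest; inactive = the rest.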

Tested on: CEM cells HIV-1 protection, formazan growth assay
Assay: NCI AIDS Antiviral Assay
Conditions: for IC50: measured here: growth of uninfected CEM cells
Outline: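 Steps: treat uninfected and HIV-1-infected human CEM cells at five drug levels; quantify growth by soluble formazan; retest any compound reaching 50% protection; classify actives from the retest.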

SMILES | EC50 | IC50 | outcome
C1CN(P(N2CCOCC2)N2CCOCC2)CCO1 | > 871 µM | > 871 µM | 
CN1C(=O)C2C(=O)N(Cc3ccccc3)CC(=O)N2c2cccnc21 (centres undefined) | > 200 µM | > 200 µM | 
COC(=O)C(C(=O)C(=O)Nc1ccccc1C(C)=O)c1nc2ccc(Cl)cc2[nH]c1=O (centres undefined) | > 58.9 µM | > 58.9 µM | 
Cc1ccccc1-n1c(=S)n(-c2ccccn2)c2nc3ccccc3nc1/c2=N/Nc1ccccn1 | > 162 µM |  | 
CC(=O)/C(=C\n1c(=S)[nH]c2ccccc21)C(=O)Nc1ccccc1 | > 200 µM | > 200 µM | 
O=C(NNc1nc(-c2ccccc2)cs1)C(F)(F)F | > 200 µM | 44.7 µM | 
Cc1ccc([PH+](CC[PH+](c2ccccc2)c2ccccc2)c2ccc(C)cc2)cc1.Cc1ccc([PH+](CC[PH+](c2ccccc2)c2ccccc2)c2ccc(C)cc2)cc1.[Pt] | > 6.92 µM | 3.8 µM | 
Nc1ncnc2oc(-c3cccs3)nc12 | > 200 µM | > 200 µM | 
NC(=O)c1c2n(c3ncnc(N)c13)C1OC(CO)C(O)C1S2 (centres undefined) | > 389 µM | > 389 µM | 
COc1ccccc1C(C1=C(O)COC1=O)c1cc2c(cc1OC(C)=O)OCO2 (centres undefined) | > 200 µM | > 200 µM | 
CCCCCNP1(NCCCCC)=NP(NCCCCC)(NCCCCC)=NP(NCCCCC)(NCCCCC)=NP(NCCCCC)(NCCCCC)=N1 | > 50.1 µM | > 50.1 µM | 
COc1cc(O)c(C(C)=O)c(O)c1 | > 200 µM | 19.1 µM | 
C[C@H](C(=O)O)C(=O)NC(=O)N(Cc1ccccc1)N=O |  |  | inactive
Cc1ccc(NC(=O)CC2C(=O)Nc3ccccc3S2(=O)=O)c(C)c1 (centres undefined) | > 4.07 µM | > 4.07 µM | 
CC(C)C1CC2C(=O)N(c3ccccc3)C(=O)C2c2[nH]c3ccccc3c21 (centres undefined) |  |  | inactive
COC[C@@H](N=Cc1ccc([N+](=O)[O-])cc1)C(C)C | > 200 µM | 67.6 µM | 
CCN(CC)CCOc1ccc(C(C#N)=C(c2ccccc2)c2ccccc2)cc1 | > 200 µM | 2.57 µM | 
O=C(O)CCCCCCC[n+]1ccccc1 | 126 µM | > 200 µM | 
CSc1nc(C(N)=O)c(NC(=O)c2ccccc2)s1 | > 200 µM | 166 µM | 
O=[N+]([O-])c1cccc(C2=NN(c3ccccc3)C3c4cc(Br)ccc4OCC23)c1 (centres undefined) | > 11.5 µM | > 11.5 µM | 
CC(Oc1ccc2c(=O)cc(-c3ccccc3)oc2c1)C(=O)O (centres undefined) |  |  | inactive
COc1nc(C(Cl)(Cl)Cl)c(Cl)c(OC)c1Cl | > 41.7 µM | > 41.7 µM | 
CC(=O)C(N)=Nc1ccccc1 | > 1550 µM | > 1550 µM | 

SMILES | EC50 | IC50 | outcome
O=C(CCn1[nH]c(=O)c(Cl)c(Cl)c1=O)NOCCCc1ccccc1 | > 646 µM | > 646 µM | 
O=c1ccc2ccccc2c2ccccc12 | > 117 µM | 1.66 µM | 
COc1cccc2c(=O)c3ccccc3oc12 | > 200 µM | > 200 µM | 
O=C1OCc2c1cc1ccc(O)c(OC3OC(CO)C(O)C(O)C3O)c1c2-c1ccc2c(c1)OCO2 (centres undefined) | > 501 µM | > 501 µM | 
CNCC(=O)NC(CO)C(=O)NC(CO)C(=O)NC1C(C(N)=O)OC(n2ccc(N)nc2=O)C(O)C1O (centres undefined) |  |  | inactive
C[C@]12CC[C@@H]3c4ccc(OC(=O)N(CCCl)CCCl)cc4CC[C@H]3[C@@H]1CC[C@@H]2O | > 200 µM | 1.7 µM | 
CCCCCCCC(=O)[O-].N.N.N.N.N.[Co+3].[O-][Cl+3]([O-])([O-])[O-] |  |  | inactive
C=C1C(=O)OC2C1CC[C@H](C)C1(O)C(O)CC(=O)[C@@]21C (some centres undefined) |  |  | inactive
CCOC(=O)CCC(NC(=O)c1ccc(OCc2nc3cc(C(F)(F)F)ccc3nc2-c2ccccc2)cc1)C(=O)OCC (centres undefined) | > 200 µM | 27.5 µM | 
N#C/C(=C(/Cc1ccc(F)cc1)NP(=O)(c1ccccc1)c1ccccc1)c1ccc(F)cc1 | > 21.4 µM | > 21.4 µM | 
O=C(Nc1nccs1)c1ccc(C(=O)Nc2nccs2)cc1 | > 200 µM | > 200 µM | 
CCCC(=O)Nc1ccc(O)c2c1C1CCCCCC21 (centres undefined) | > 200 µM | 102 µM | 
N#CC(C#N)=c1ccc(=C2N3CCCC3CN2C23CC4CC(CC(C4)C2)C3)cc1 (centres undefined) |  |  | inactive
COc1ccc(Cl)c(CCCCCCCC(=O)O)c1 | > 200 µM | > 200 µM | 
O=C1/C(=C\c2cccc(Oc3ccccc3)c2)S(=O)(=O)C(c2ccccc2)N1c1ccccc1Cl (centres undefined) | > 2 µM | 0.0427 µM | 
O=C1C(=Cc2cccs2)C(=O)N(CCc2ccccc2)S(=O)(=O)N1CCc1ccccc1 | > 8.13 µM | > 8.13 µM | 
O=c1[nH]n(Cc2ccccc2CCl)c2ccc([N+](=O)[O-])cc12 | > 200 µM | 38 µM | 
OC1(c2ccccc2)CCCCCCCCC(O)(c2ccccc2)CCCCCCCC1 (centres undefined) | > 200 µM | > 200 µM | 
Nc1ccn(C2OC(CO)C(O)C2O)c(=O)n1 (centres undefined) | > 2 µM | 0.00275 µM | 
CCOC(=O)/C=C/[C@H](O[Si](c1ccccc1)(c1ccccc1)c1ccccc1)C(C)(C)C | > 200 µM | > 200 µM | 
Nc1o[nH]c(=O)c1-c1ccccc1 | > 200 µM | > 200 µM | 
CCC1(CC)COP(=S)([S][Sb]([O]C(C)=O)[S]P2(=S)OCC(CC)(CC)CO2)OC1 | > 57.5 µM | 9.33 µM | 
COC(=O)/C(=N\N)C(C(=O)C(=O)Nc1nc(=S)[nH][nH]1)c1nc2ccc([N+](=O)[O-])cc2[nH]c1=O (centres undefined) | > 75.9 µM | > 75.9 µM | 

SMILES | EC50 | IC50 | outcome
NC(=O)c1cnc2cc(O)c(O)cc2c1 | > 209 µM | 14.1 µM | 
COc1ccc(/C=C2\S/C(=N/Nc3nc(-c4ccccc4)cs3)NC2=O)cc1OC | > 200 µM | 31.6 µM | 
COC(=O)[C@@H]1C[C@H]2[C@H](c3ccccc3Br)[C@@H](OC(C)=O)[C@@H](OCc3ccccc3)ON2O1 | > 200 µM | > 200 µM | 
C/C=C1\CN(C)C2Cc3c([nH]c4ccccc34)[C@H](c3c(OC)ccc4c5c([nH]c34)C3(C(=O)OC)CC4CC(CC)C3N(CC5)C4)CC1C2C(=O)OC (some centres undefined) |  |  | inactive
C/C(=N\NC(=S)N(C)C)c1cccnn1 | > 200 µM | 0.355 µM | 
CCOC(=O)/C(=C/c1ccc(OC)cc1)C(=O)c1ccccc1 | > 17 µM | > 17 µM | 
O=C(O)/C=C\CCCCC(=O)O | > 1450 µM | > 1450 µM | 
Cc1nc2c(N)ncnc2o1 | > 9.55 µM | > 9.55 µM | 
COC(=O)CN(CC(O)C(NC(C)=O)C(O)C=O)C(=O)OCc1ccccc1 (centres undefined) | > 200 µM | > 200 µM | 
CC(CCc1nc2ccccc2[nH]1)C1CCC2C3CC[C@@H]4C[C@H](O)CC[C@]4(C)C3C[C@H](O)[C@]12C (some centres undefined) | > 50.1 µM | 4.07 µM | 
COC1OC(CS(=O)(=O)O)C(O)C(O)C1O (centres undefined) |  |  | inactive
OCCNc1nnc(NCCO)c2[nH]cnc12 |  |  | inactive
COc1cc(NC(C)=O)c2[nH]c3c(C)cc(NC(C)=O)c(C)c3c2c1 |  |  | inactive
O=C(O)CCCCCCCCCCCBr | 37.2 µM | 162 µM | 
CCc1n[nH]c(=O)n1CCCCCCCCCCCCn1c(CC)n[nH]c1=O | > 200 µM | 41.7 µM | 
CCCCCCC1CC(=O)C1(Cl)Cl (centres undefined) |  |  | inactive
O=C(/C=C/c1ccc(OCc2cccc(Cl)c2)cc1)NO | > 200 µM | 25.7 µM | 
COC(=O)/C=C\c1ccc2c(c1)CC1(C2)Cc2ccc(/C=C/C(=O)OC)cc2C1 (centres undefined) | > 200 µM | > 200 µM | 
CC1(C)c2ccccc2-c2nc3ccccc3c3c2C1OC3=O (centres undefined) | > 832 µM | > 832 µM | 
O=C(c1ccccc1)c1ccc(OCCOc2ccc(Nc3ccccc3)cc2)cc1 | > 6.61 µM | > 6.61 µM | 
CCOC(=O)C[P+](c1ccc(OC)cc1)(c1ccc(OC)cc1)c1ccc(OC)cc1 | > 200 µM | 33.1 µM | 
N#Cc1ncn(Cc2ccccc2)c1N | > 200 µM | > 200 µM | 
ClCCN1CCOC1=Nc1ccc2c(c1)CCCC2 | > 200 µM | 43.7 µM | 

SMILES | EC50 | IC50 | outcome
Brc1cc2nn(-c3ccccc3)nc2c2nonc12 | > 200 µM | > 200 µM | 
O=c1n(-c2ccccc2)c(=O)n2n1C1CC3c4ccccc4C1C2C31CC1 (centres undefined) | > 35.5 µM | > 35.5 µM | 
C#CC1(O)C(CO)OC(n2ccc(=O)[nH]c2=O)C1O[Si](C)(C)C(C)(C)C (centres undefined) | > 200 µM | 27.5 µM | 
c1ccc(P(c2ccccc2)c2ccc(P(c3ccccc3)c3ccccc3)nn2)cc1 | > 8.51 µM | > 8.51 µM | 
COc1cccc2c1CCc1sc(CN3CCN(C)CC3)nc1-2 | > 200 µM | 30.2 µM | 
O=C(O)c1cc(=O)c2cccc(O)c2[nH]1 | > 200 µM | > 200 µM | 
CC1=CC[P+](Cc2ccccc2)(c2ccccc2)C1 (centres undefined) | > 724 µM | 40.7 µM | 
CC(=O)O/N=C/c1cc2c(cc1Br)OCO2 | > 18.2 µM | > 18.2 µM | 
Clc1ccc(C=Nc2ccc(Oc3ccc(Cl)cc3)c(Cl)c2)cc1 | > 200 µM | 33.1 µM | 
CCOC(=O)C(=[N+]=[N-])C(=O)Nc1nn2nnnc2c2ccccc12 | > 200 µM | > 200 µM | 
O=C1CCCC1CN1CCCCC1 (centres undefined) |  |  | inactive
Cc1ccc(S(=O)(=O)n2ccc(-c3ccc4ccn(S(=O)(=O)c5ccc(C)cc5)c4c3)c2)cc1 | > 200 µM | 87.1 µM | 
C[C@]12CC[C@@H]3c4cc(I)c(O)cc4CC[C@H]3[C@@H]1CC[C@@H]2O | > 200 µM | 2.09 µM | 
CCc1cc(-c2ccc(OC)cc2)c(C#N)c(=S)n1C1OC(COC(C)=O)C(OC(C)=O)C(OC(C)=O)C1OC(C)=O (centres undefined) | > 200 µM | 14.5 µM and 12.3 µM | 
COC(=O)[C@@H]1N2C(=O)C=NO[C@H]2SC1(C)C | > 1020 µM | > 1020 µM | 
COc1ccc2c(c1)c(OC)c(CC(O)C(C)(C)O)c(=O)n2C (centres undefined) | > 200 µM | > 200 µM | 
Cc1cc(Br)cc(C)c1NC(=O)C(=O)C(C(=O)c1ccc2ccccc2c1)C1OC(=O)c2ccccc21 (centres undefined) | > 64.6 µM | 12.9 µM | 
Cn1cnc([N+](=O)[O-])c1Sc1nc2ccccc2o1 | > 26.3 µM | 2.75 µM | 
CN1CCN(CC(=O)N2CCCn3c2nc2ccccc2c3=O)CC1 | > 200 µM | > 200 µM | 
C=C(/C=N/N(C)C)CC1c2c(O)ccc3cccc(c23)N1S(=O)(=O)c1ccc(C)cc1 (centres undefined) | > 10.7 µM | > 10.7 µM | 
